Data published in patent publication US4892870A, “Oxaza heterocycles and pharmaceutical compositions containing same” (Biofor, Ltd., priority 1988, dated 1990).

What was measured:
hind paw edema [1] = experiment: Adjuvant Arthritis Assay; Developing (percent inhibition of hind paw edema); format: in vivo, female Lewis rats; details: Rattus norvegicus, 96 h, once daily for 4 days in 0.25% methylcellulose, paw volumes on fifth day
Experimental: Anti-Inflammatory: This activity was evaluated via a modification of the Adjuvant Arthritis Assay (AA) described by S. Wong et al in "The Journal of Pharmacology and Experimental Therapeutics", Vol. 185. […] This assay measures the ability of the test compound to antogonize local edema, a characteristic of the inflammatory response. […] The left and right rear paws of female Lewis rats (Charles River Laboratories) weighing 160-180 grams each were measured by mercury displacement prior to injection (Day Zero). Adjuvant arthritis was induced in this rat colony by subcutaneous injection of Mycobacterium butyricum (0.75 mg in 0.1 ml light mineral oil, Fisher) using an automated Cornwall syringe. On days 11-15 post-adjuvant the injected animals with 0.25 to 0.75 ml. paw edema were selected and distributed evenly, according to edema size, into control and experimental groups of ten rats each. Vehicle control and drug treatments were assigned to the groups at random. The assay was performed using a variable dose level for each test compound per kilogram per day in 0.25% methylcellulose. vehicle. All animals were dosed once daily for 4 days and on the fifth day both hind paw volumes were again measured using mercury displacement. The hind paw edema was determined for each rat by subtracting the hind paw volume measured on Day Zero from the hind paw volume measured on the fifth day of the study. Group means were determined and the drug effect was calculated as percent inhibition of the hind paw edema according to the following equation: [formula] […] The known anti-inflammatory NAPROXEN was also tested for comparison purposes.

[2] = cited from G. Moore, U.S. Pat. No. 4,337,345; cited from earlier work
acetylcholine writhing = experiment: Acetylcholine Writhing Assay (analgesic); format: in vivo, male CD-1 mice; details: Mus musculus; oral, 45 min before intraperitoneal acetylcholine; writhes counted 10 minutes
Experimental: Analgesic: The "Acetylcholine Writhing Assay" (ACH) of collier et al [Nature: Vol. 204: page 1316 (1964)] was employed. In this study the test compounds were administered orally to mice and 45 minutes later the mice were injected with acetylcholine. The frequency of writhing was counted in each animal and the response elicited in the drug-treated mice was compared with the response of those given acetylcholine alone.
Analgesic activity was evaluated via the mouse acetylcholine writhing test using a modification of the procedure described by Collier, et al in Nature (New Biol.) Vol. 204; page 1316 (1964) and Br. J. Pharmacol, Chemother, Vol. 32: page 295 (1968). Each test group consisted of ten male CD-1 mice (Charles River Laboratories) weighing 18-28 grams each. Test compounds suspended in a mixture of 0.25% methylcellulose solution […] were administered orally by gavage and fort five minutes later the mice were injected intraperitoneally with acetylcholine (0.55 mg/ml in 0.25% methylcellulose). The number of writhes in each group of mice were counted for 10 minutes immediately following the injection of acetylcholine and the percent inhibition was calculated as follows: [formula] Four dose levels were used to calculate the ED50. of each test compounds.

yeast-induced fever = experiment: Antipyretic Evaluation (yeast-induced fever); format: in vivo, male Sprague-Dawley rats; details: 300 mg/kg oral; Example 1 in olive oil, Example 2 in 0.25% methylcellulose; all decreases significant at p <0.05 (paired-samples Student's t-Test)
Experimental: Antipyretic: This activity was evaluated by creating a yeast-induced fever in rats according to a modified method of the procedure described by Loux e al in "Toxicology and Applied Pharmacology", Vol. 22: page 672 (1972). In this assay rats injected with yeast in distilled water were dosed with test compounds, aspirin (positive control) and a vehicle (negative control) and the observed differences in body temperature were analyzed statistically.
Antipyretic activity was evaluated using a modification of the test described by Loux et al, in Toxicology and Applied Pharmacology, 22:672(1972), that is, yeast-induced fever in rats. Each test group consisted of ten male Sprague-Dawley rats (Charles River Laboratories), weighing 180-225 grams each. Eighteen hours prior to compound administration the rats were weighed and body temperatures were recorded. Food was removed with water available ad libitum.
Each animal was injected subcutaneously into the central dorsal region with five (5.0) ml portions of a 15% (150 mg/1.0 ml) suspension of Fleischman's yeast in distilled water.
Test compounds suspended in 0.25% methylcellulose (0.25% MC) or olive oil were administered orally by gavage nineteen hours following the yeast injection. Body temperatures were taken and recorded one hour after compound administration. Aspirin (300 mg/kg) was the reference standard drug administered with each antipyretic study. The mean temperature of the compound-treated groups, positive control group (Aspirin) and negative control group (vehicle) were calculated at 18 hours and 20 hours. The data was analyzed statistically using a paired-samples Student's t-Test.

paw edema = experiment: Adjuvant Arthritis Assay; Established (chronic anti-inflammatory and antiarthritic); format: in vivo, rats; details: Rattus norvegicus, 552 h, oral once daily on days 19-22, paw volumes day 23
Experimental: In this assay the differences between dosed and non-dosed paw values were determined postadjuvant. Chronic anti-inflammatory and antiarthritic activity were evaluated using the method described by S. Wong in "Tolmetin: A New Non-steroidal Anti-inflammatory Agent" Editor: John R. Ward, Excerpta Medica, N.J. pp. 1-27 (1976). On day 19 post adjuvant all rats were evenly distributed according to edema size. Doses of treatment or vehicle were administered orally to all rats once daily on days 19-22 inclusive. Final paw volumes were determined on day 23 post adjuvant.

LD50 = details: rat, in vivo, po
hind paw edema [3] = experiment: Adjuvant Arthritis Assay; Immunomodulatory; format: in vivo, Lewis female rats; details: 50 mg/kg oral, Day 5 to 9 inclusive; edema on Day 15
Experimental: Immunomodulatory: This activity was determined by using a Modified Adjuvant Assay procedure in which female rats were injected with Mycobacterium butyricum to induce hind paw edema. The test compounds were administered orally and the difference in volume between dosed and non-dosed paws was determined.
Lewis female rats were injected in the tail subcutaneously with Mycobacterium butyricum (0.75 mg in 0.1 ml light mineral oil, Fisher) on Day Zero. Prior to injection the volumes of the left and right rear paws were measured by mercury displacement. All rats were dosed orally with vehicle or test compounds on Day 5 to 9 inclusive. The volume of both hind paws were determined on Day 15 and the percent inhibitions were calculated based upon average edema on Day 15 relative to the edema mean in the control group.

Structure (SMILES): CN1OC/C(=C/c2cc(C(C)(C)C)c(O)c(C(C)(C)C)c2)C1=O [Example 1 (Z-Isomer), 4-(3,5-di-tert-butyl-4-hydroxybenzylidene)-2-methyl-3-isoxazolidinone]
- ED50 (hind paw edema [1]): 36 mg/kg

Structure (SMILES): CC(=O)c1cc(C(C)(C)C)c(O)c(C(C)(C)C)c1 [4-acetyl-2,6-(di-tert-butyl)phenol]
- anti-inflammatory activity [2]: absence of anti-inflammatory activity

Structure (SMILES): Cc1cc(C(C)(C)C)c(O)c(C(C)(C)C)c1 [3,5-di(tert-butyl)-4-hydroxytoluene]
- anti-inflammatory activity [2]: little or no value as an anti-inflammatory agent

Structure (SMILES): CCCCCCCCc1cc(C(C)(C)C)c(O)c(C(C)(C)C)c1 [4-n-octyl-2,6-di-(tert-butyl)phenol]
- anti-inflammatory activity [2]: absence of anti-inflammatory activity

Structure (SMILES): CC(C)(C)c1cc(C(N)=O)cc(C(C)(C)C)c1O [4-carboxamido-2,6-di-(tert-butyl)phenol]
- anti-inflammatory activity [2]: absence of anti-inflammatory activity

Structure (SMILES): CC(C)(C)c1cc(C(=O)c2ccccc2Cl)cc(C(C)(C)C)c1O [4-(2-chlorobenzoyl)-2,6-di-(tert-butyl)phenol]
- anti-inflammatory activity [2]: absence of anti-inflammatory activity

Structure (SMILES): CN1OC/C(=C\c2cc(C(C)(C)C)c(O)c(C(C)(C)C)c2)C1=O [Example 1 (E-Isomer), 4-(3,5-di-tert-butyl-4-hydroxybenzylidene)-2-methyl-3-isoxazolidinone]
- ED50 (acetylcholine writhing): 18 mg/kg
- ED50 (hind paw edema [1]): 20 mg/kg

Structure (SMILES): CC(C)(C)c1cccc(C(C)(C)C)c1O [2,6-di-(tert-butyl)phenol]
- anti-inflammatory activity [2]: absence of anti-inflammatory activity

Structure (SMILES): CC(=O)Oc1ccccc1C(=O)O [Aspirin, reference compound]
- Change in Temperature, 18-20 Hour Period (yeast-induced fever): -2.05 °C

Structure (SMILES): CC(C)(C)c1cc(S(=O)(=O)c2ccccc2)cc(C(C)(C)C)c1O [2,6-di-(tert-butyl)-4-(phenylsulfonyl)phenol]
- anti-inflammatory activity [2]: absence of anti-inflammatory activity

Structure (SMILES): COc1ccc2cc([C@H](C)C(=O)O)ccc2c1 [NAPROXEN, reference compound]
- ED50 (paw edema): 28 mg/kg
- ED50 (acetylcholine writhing): 6.2 mg/kg
- ED50 (hind paw edema [1]): 28 mg/kg

Structure (SMILES): CC(C)(C)c1cc(C(=O)c2cc(C(=O)O)ccc2Cl)cc(C(C)(C)C)c1O [4-(5-carboxy-2-chlorobenzoyl)-2,6-di-(tert-butyl)phenol]
- anti-inflammatory activity [2]: absence of anti-inflammatory activity

Structure (SMILES): CN1OCCC(=Cc2cc(C(C)(C)C)c(O)c(C(C)(C)C)c2)C1=O [Example 2, Dihydro-4-(3,5-Di-tert-Butyl-4-Hydroxybenzylidene)-2-Methyl-2H-1,2-Oxazin-3(4H)-one]
- Change in Temperature, 18-20 Hour Period (yeast-induced fever): -1.33 °C
- LD50 (LD50): > 1000 mg/kg
- ED50 (paw edema): 8 mg/kg
- ED50 (acetylcholine writhing): 2.8 mg/kg
- ED50 (hind paw edema [1]): 7 mg/kg
- % Inhibition (hind paw edema [3]): 39%

Structure (SMILES): CN1OCC(=Cc2cc(C(C)(C)C)c(O)c(C(C)(C)C)c2)C1=O [Example 1, 4-(3,5-Di-tert-Butyl-4-Hydroxybenzylidene)-2-Methyl-3-Isoxazolidinone; E and Z Isomers]
- Change in Temperature, 18-20 Hour Period (yeast-induced fever): -1.33 °C
- LD50 (LD50): > 1000 mg/kg
- ED50 (paw edema): 44 mg/kg
- % Inhibition (hind paw edema [3]): 43%
